Source: patent US20190134129A1, “METHOD FOR ALLEVIATING ULTRAVIOLET DAMAGE WITH ETHYL ACETATE-EXTRACTED PRODUCT OF SEDUM FORMOSANUM” (Sinotai Oncology Associate., Ltd., priority 2017, published 2019)

Tested on: HaCaT cells
Experiment: Apoptosis assay (FITC Annexin V/PI) of UV- or X-ray-irradiated HaCaT cells
Assay type: cell-based, human
Settings: UV 50 mJ/cm^2, 48 hours
Excerpt: A. Test Sample Pretreatment and Irradiation Treatment

SMILES | Apoptosis percentage (%) (125 μg/mL pretreatment) | Apoptosis percentage (%) (250 μg/mL pretreatment)
O=c1c(O[C@@H]2O[C@H](CO)[C@@H](O)[C@H](O)[C@H]2O)c(-c2ccc(O)cc2)oc2cc(O)cc(O)c12 [astragalin] | 22.37 ± 3.32 | 69.07 ± 5.07
O=c1cc(-c2ccc(O)cc2)oc2c([C@@H]3O[C@H](CO)[C@@H](O)[C@H](O)[C@H]3O)c(O)cc(O)c12 [vitexin] | 20.00 ± 0.73 | 70.93 ± 1.52
